In ChEMBL document CHEMBL1148826, “Substituted 6-(1-pyrrolidine)quinolin-2(1H)-ones as novel selective androgen receptor modulators” (J Med Chem, 2007):

How the values were obtained:
[1] = target: T1, Progesterone receptor (Homo sapiens, UniProt P06401); assay: Binding affinity to PR
T1 sequence (P06401 whole entry): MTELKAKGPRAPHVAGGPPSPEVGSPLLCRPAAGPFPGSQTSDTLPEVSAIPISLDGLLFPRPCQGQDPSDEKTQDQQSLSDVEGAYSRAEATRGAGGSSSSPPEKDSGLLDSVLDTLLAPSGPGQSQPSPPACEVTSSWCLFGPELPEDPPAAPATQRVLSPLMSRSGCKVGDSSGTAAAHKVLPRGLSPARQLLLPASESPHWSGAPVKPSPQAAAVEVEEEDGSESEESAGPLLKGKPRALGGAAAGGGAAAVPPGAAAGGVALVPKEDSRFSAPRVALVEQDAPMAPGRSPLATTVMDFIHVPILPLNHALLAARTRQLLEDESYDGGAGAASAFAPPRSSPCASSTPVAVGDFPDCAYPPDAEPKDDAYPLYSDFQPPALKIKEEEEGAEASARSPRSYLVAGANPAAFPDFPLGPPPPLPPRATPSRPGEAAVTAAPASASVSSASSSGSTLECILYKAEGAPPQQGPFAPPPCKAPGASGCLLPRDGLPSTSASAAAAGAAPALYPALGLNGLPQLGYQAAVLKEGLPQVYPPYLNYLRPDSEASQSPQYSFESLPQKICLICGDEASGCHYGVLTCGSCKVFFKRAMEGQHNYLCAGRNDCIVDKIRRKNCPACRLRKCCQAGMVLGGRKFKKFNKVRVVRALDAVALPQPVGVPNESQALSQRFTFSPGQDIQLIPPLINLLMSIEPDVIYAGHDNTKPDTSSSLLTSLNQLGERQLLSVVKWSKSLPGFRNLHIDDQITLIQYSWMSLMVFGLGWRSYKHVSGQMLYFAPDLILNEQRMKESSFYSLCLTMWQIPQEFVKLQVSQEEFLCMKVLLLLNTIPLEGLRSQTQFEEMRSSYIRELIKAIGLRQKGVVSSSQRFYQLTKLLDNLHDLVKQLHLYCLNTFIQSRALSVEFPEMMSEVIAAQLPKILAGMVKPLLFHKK

[2] = target: T2, Mineralocorticoid receptor (Homo sapiens, UniProt P08235); assay: Binding affinity to MR
T2 sequence (P08235 whole entry): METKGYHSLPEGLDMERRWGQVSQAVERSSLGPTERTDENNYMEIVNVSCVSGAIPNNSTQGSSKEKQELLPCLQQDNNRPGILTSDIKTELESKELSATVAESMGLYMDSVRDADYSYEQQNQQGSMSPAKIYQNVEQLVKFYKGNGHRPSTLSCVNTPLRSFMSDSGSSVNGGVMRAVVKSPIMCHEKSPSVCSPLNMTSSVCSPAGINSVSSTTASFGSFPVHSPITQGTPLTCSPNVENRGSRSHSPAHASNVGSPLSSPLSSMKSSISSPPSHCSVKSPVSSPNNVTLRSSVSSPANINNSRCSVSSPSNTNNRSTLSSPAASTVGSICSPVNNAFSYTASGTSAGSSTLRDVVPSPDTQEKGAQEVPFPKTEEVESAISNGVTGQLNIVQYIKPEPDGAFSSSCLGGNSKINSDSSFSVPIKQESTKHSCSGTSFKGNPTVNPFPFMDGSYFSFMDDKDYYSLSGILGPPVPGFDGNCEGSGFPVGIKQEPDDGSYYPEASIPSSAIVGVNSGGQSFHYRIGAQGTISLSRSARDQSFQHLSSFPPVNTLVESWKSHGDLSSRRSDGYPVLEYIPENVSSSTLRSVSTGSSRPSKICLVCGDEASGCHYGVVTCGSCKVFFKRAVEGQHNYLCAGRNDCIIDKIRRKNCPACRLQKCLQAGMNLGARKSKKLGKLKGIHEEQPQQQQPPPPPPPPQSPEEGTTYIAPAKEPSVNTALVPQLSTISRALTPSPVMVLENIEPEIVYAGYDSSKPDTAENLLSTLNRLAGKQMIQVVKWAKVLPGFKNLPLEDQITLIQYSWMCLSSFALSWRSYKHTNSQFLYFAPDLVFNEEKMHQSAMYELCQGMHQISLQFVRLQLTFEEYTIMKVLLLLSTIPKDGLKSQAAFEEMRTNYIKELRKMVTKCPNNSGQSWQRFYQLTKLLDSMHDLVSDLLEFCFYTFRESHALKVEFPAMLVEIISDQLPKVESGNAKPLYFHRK

[3] = target: T3, Estrogen receptor (Homo sapiens, UniProt P03372); assay: Binding affinity to ERalpha
T3 sequence (P03372 whole entry): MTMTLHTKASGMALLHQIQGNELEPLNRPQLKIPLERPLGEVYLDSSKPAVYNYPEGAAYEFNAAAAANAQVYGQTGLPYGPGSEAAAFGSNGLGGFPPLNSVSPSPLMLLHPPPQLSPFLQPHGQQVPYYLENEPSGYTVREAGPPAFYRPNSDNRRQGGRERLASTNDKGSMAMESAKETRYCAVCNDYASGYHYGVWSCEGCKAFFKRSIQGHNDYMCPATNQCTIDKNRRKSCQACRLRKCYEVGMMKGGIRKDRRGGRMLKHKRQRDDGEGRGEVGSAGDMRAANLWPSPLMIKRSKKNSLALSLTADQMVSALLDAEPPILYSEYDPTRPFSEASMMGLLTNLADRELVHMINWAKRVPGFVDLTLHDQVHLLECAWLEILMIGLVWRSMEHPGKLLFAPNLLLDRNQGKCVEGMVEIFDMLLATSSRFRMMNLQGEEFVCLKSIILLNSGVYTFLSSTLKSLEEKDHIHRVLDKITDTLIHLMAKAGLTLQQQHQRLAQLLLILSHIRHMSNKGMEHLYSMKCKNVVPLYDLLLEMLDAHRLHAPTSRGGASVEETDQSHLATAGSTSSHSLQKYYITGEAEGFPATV

[4] = Bioavailability in Sprague-Dawley rat at 14.6 mg/kg, po; format: ADME, organism-based; conditions: in vivo
[5] = target: T4, Androgen receptor (Homo sapiens, UniProt P10275)
T4 sequence (P10275 whole entry): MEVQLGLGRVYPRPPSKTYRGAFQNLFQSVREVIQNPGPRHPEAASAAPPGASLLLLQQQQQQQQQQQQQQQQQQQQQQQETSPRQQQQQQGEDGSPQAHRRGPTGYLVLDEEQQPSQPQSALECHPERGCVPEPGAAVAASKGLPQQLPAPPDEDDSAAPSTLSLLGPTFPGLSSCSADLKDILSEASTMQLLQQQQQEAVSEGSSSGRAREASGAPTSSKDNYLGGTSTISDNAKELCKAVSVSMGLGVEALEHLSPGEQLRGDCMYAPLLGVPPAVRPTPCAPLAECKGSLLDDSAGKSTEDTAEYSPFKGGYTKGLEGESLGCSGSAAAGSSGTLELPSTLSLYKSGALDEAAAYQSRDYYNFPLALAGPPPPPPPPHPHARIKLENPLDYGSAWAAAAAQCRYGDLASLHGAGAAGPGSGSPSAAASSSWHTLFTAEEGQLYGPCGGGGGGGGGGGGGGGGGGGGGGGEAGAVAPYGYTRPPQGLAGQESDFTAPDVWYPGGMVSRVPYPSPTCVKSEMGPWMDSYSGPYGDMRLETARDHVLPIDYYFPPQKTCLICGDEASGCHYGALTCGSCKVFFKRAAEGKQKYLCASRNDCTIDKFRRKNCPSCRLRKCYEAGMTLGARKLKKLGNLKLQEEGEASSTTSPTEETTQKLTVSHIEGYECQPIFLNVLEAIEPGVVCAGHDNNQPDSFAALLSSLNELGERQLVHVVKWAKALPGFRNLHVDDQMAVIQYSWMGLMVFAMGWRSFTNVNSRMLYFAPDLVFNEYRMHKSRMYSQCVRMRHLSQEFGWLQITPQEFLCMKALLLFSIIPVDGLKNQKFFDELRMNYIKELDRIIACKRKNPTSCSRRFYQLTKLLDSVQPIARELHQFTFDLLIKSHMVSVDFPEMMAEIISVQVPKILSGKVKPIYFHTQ
Description: Binding affinity to human AR

[6] = Anabolic effect as increased levator ani muscle weight in orchidectomized rat model at doses > 1 mg/kg; format: functional, organism-based; parameters: dose 1 mg/kg
[7] = target: T4, Androgen receptor; remark: listed apart in the source
Description: Antagonist activity at human androgen receptor by luciferase reporter gene assay

[8] = Half life in Sprague-Dawley rat at 2.5 mg/kg, iv; format: ADME, organism-based; parameters: dose 2.5 mg/kg, route intravenous; conditions: in vivo
[9] = target: T4, Androgen receptor; remark: listed apart in the source
Description: Agonist activity at human androgen receptor by luciferase reporter gene assay

[10] = AUC (0 to infinity) in Sprague-Dawley rat at 14.6 mg/kg, po; format: ADME, organism-based; parameters: time infinity, dose 14.6 mg/kg, route oral; conditions: plasma
[11] = target: T5, Glucocorticoid receptor (Homo sapiens, UniProt P04150); assay: Binding affinity to GR
T5 sequence (P04150 whole entry): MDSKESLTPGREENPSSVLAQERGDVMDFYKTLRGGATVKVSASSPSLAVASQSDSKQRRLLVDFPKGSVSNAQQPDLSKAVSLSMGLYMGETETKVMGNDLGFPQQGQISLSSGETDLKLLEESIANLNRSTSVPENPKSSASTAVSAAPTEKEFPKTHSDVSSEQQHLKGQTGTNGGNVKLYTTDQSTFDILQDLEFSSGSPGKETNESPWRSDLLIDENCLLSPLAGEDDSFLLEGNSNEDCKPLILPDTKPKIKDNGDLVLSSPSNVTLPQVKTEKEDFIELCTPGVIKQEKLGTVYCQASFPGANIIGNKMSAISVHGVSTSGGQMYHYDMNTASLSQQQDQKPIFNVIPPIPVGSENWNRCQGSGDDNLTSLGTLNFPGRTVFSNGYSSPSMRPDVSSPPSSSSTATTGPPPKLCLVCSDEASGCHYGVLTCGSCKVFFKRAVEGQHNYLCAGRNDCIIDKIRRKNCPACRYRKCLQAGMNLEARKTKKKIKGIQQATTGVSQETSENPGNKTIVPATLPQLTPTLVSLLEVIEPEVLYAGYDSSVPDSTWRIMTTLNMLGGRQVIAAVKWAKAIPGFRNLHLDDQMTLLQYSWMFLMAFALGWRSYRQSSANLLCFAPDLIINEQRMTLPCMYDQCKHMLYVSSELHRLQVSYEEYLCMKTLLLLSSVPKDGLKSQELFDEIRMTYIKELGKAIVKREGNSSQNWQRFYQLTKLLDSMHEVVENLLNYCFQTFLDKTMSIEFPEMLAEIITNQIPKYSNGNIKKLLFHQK

[12] = AUC (0 to infinity) in Sprague-Dawley rat at 10 mg/kg, po; format: ADME, organism-based; parameters: time infinity, dose 10 mg/kg, route oral; conditions: plasma
[13] = Bioavailability in Sprague-Dawley rat at 10 mg/kg, po; format: ADME, organism-based; conditions: in vivo

SMILES	Ki [5]	IC50 [7]	EC50 [9]	also measured
C[C@@H]1CC[C@H]([C@@H](O)C(F)(F)F)N1c1ccc2[nH]c(=O)cc(C(F)(F)F)c2c1 [LGD-2941]	1.5 nM	> 10 µM	7.1 nM	Ki [1]: 2500 nM; Ki [2]: > 10 µM; Ki [3]: > 10 µM; bioavailability [4]: 100%; Anabolic activity [6]: Anabolic; half-life [8]: 162 min; AUC(0-inf) [10]: 11800 ng·h/mL; Ki [11]: 8.3 µM
C[C@@H]1CC[C@H]([C@H](O)C(F)(F)F)N1c1ccc2[nH]c(=O)cc(C(F)(F)F)c2c1	7.6 nM	> 10 µM	8.4 nM	–
C[C@@H]1CC[C@H](CO)N1c1ccc2[nH]c(=O)cc(C(F)(F)F)c2c1	70 nM	> 10 µM	21 nM	–
CC1CCCN1c1ccc2[nH]c(=O)cc(C(F)(F)F)c2c1 (racemic)	72 nM	> 10 µM	–	–
C[C@@H]1CC[C@H](CCl)N1c1ccc2[nH]c(=O)cc(C(F)(F)F)c2c1	10 nM	> 10 µM	12 nM	–
C[C@@H]1CC[C@H](C)N1c1ccc2[nH]c(=O)cc(C(F)(F)F)c2c1	19 nM	> 10 µM	2.6 nM	–
O=c1cc(C(F)(F)F)c2cc(N(CC(F)(F)F)CC(F)(F)F)ccc2[nH]1	–	–	–	AUC(0-inf) [12]: 3150 ng·h/mL; bioavailability [13]: 43%; half-life [8]: 102 min
C[C@@H]1CC[C@@H](C)N1c1ccc2[nH]c(=O)cc(C(F)(F)F)c2c1 (racemic)	43 nM	> 10 µM	48 nM	–
O=c1cc(C(F)(F)F)c2cc(N3CCCC3)ccc2[nH]1	1700 nM	0.025 µM	> 10000 nM	–
